Patent publication US5079261A, “Use of lipoxin A4 and its derivatives as antagonists for slow-reacting substances of anaphylaxis” (Brigham and Women's Hospital, priority 1989, dated 1992)

What was measured:
vascular smooth muscle = details: cited from earlier work
neutrophils = details: cited from earlier work
guinea pig lung = details: cited from earlier work
[1] = tested on: guinea pig ileum or trachea; details: cited from earlier work
rat mesangial cells = experiment: IP3 formation ([3H]-inositol labeled mesangial cells) in response to LTD4 or LXA4; format: cell-based; details: Mesangial cell, 5 s
Description: Statistical: ANOVA with Bonferroni modification for multiple pre-planned comparisons was used, within each group and between groups, to compare the changes in various whole kidney and microcirculatory indices which occurred from one period to another. In phosphoinositide generation studies, increases in [^3 H]-IP3 CPMs in agonist-treated cells were compared to vehicle-treated controls using upaired students t-test. Differences were considered significant at a p value ≤0.05. All values are reported as means ± SEM.
The isolated glomeruli were harvested from the surface of the 75 μm filter and washed twisce with the Hank's Media. […] Mesangial cell colonies were subcultured in 60 mm culture dishes, and experiments were carried out in cells from passages 2 to 12.
(§1) To label mesangial cells with [^3 H]-Inositol, cells grown to confluence in 60 mm culture dishes (10^6 cells/dish) were cultured in RPMI, supplemented with 10% dialyzed fetal calf serum and [^3 H]-inositol (1 μCi/ml) in a total incubation volume of 5 ml.
Reactions were terminated by the addition of cold 10% trichloroacetic acid (TCA), the supernatants subjected to ether extraction, and the aqueous phase titrated to neutral pH using 0.1 M Tris base. […] To ensure the reliability of the separation technique, the same methods for extraction and separation were applied to known amounts of [^3 H]-IP1, [^3 H]IP2, and [^3 H]-IP3 standards (New England Nuclear) mixed in a ratio of 3:2:1, respectively, and subjected to separation by HPLC.

LTD4 receptor = experiment: Inhibition of LTD4-induced IP3 formation in mesangial cells; format: cell-based, rat
Experimental: Mesangial Cell Culture: Rat mesangial cells were isolated and cultured as described previously (Harris, R. C., et al., J. Clin. Invest. 82:1028-1039(1988). Briefly, kidneys were exicesed from two young Sprague-Dawly rats under sterile conditions, and the cortices removed, minced, and washed several times in Hank's Balanced Salt Solution, containing 10 mM HEPES pH 7.4, amphotericin (0.25 μg/ml), and gentamicin (50 μg/ml). The tissue was then passed through consecutive sterilized stainless mesh filters with pore sizes of 212 μm, 150 μm, and then onto the final mesh of 75 μm. The isolated glomeruli were harvested from the surface of the 75 μm. The isolated glomeruli were harvested from the surface of the 75 μm filter and washed twisce with the Hank's Media. The glomeruli were suspended in RPMI 1640 Medium with 15% Fetal Bovine Serum (Givco), penicillin (100 μ/ml) and streptomycin (100 μg/ml) (Gibco), plated into 100 mm cell culture petri dishes, and incubated at 37° C. in a humidified atmosphere of 95% air and […] 5% CO2. Mesangial cell colonies were subcultured in 60 mm culture dishes, and experiments were carried out in cells from passages 2 to 12. The criteria used to establish the identify of mesangial cells were as described previously (Harris, R. C., et al., J. Clin. Invest. 82:1028-1039 (1988)). Cells were routinely grown in RPMI-1640, supplemented with 20% fetal calf serum, penicillin 100 μ/ml, and streptomycin 100 μg/ml. […] All eicosanoids were stored under argon at -70° C. in methanol and their purity and quantity verified periodically by ultraviolet scanning and high pressure liquid chromatography (Serhan, C. N. et al., J. Biol. Chem. 261:16340 (1986)).
as §1
Reactions were terminated by the addition of cold 10% trichloroacetic acid (TCA), the supernatants subjected to ether extraction, and the aqueous phase titrated to neutral pH using 0.1 M Tris base. [^3 H]-IP1, [^3 H]-IP2, and [^3 H]-IP3 in the aqueous phase were separated and quantitated by anion exchange column chromatography, using the method of Berridge et al. (Berridge, M. J., Biochem. J. 220:345-360 (1984)). To ensure the reliability of the separation technique, the same methods for extraction and separation were applied to known amounts of [^3 H]-IP1, [^3 H]IP2, and [^3 H]-IP3 standards (New England Nuclear) mixed in a ratio of 3:2:1, respectively, and subjected to separation by HPLC. The latter was performed using established methodology described previously (Cunha-Melo, J. R., et al., J. Biol. Chem. 262:11455-11463 (1987)).

[2] = target: T1, mesangial cell LTD4 receptor (Rattus norvegicus, UniProt Q924T8); experiment: biochemical
T1 sequence (Q924T8 1-339): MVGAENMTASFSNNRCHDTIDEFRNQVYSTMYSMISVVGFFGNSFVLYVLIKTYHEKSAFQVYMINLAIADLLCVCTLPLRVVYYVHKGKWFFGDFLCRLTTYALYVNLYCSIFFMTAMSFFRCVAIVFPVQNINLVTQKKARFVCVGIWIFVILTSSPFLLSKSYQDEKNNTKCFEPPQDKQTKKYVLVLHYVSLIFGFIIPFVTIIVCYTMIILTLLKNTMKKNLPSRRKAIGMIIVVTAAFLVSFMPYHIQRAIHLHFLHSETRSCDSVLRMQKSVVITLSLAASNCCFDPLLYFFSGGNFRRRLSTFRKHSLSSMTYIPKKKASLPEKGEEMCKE
Experimental: Mesangial Cell Culture: Rat mesangial cells were isolated and cultured as described previously (Harris, R. C., et al., J. Clin. Invest. 82:1028-1039(1988). Briefly, kidneys were exicesed from two young Sprague-Dawly rats under sterile conditions, and the cortices removed, minced, and washed several times in Hank's Balanced Salt Solution, containing 10 mM HEPES pH 7.4, amphotericin (0.25 μg/ml), and gentamicin (50 μg/ml). The tissue was then passed through consecutive sterilized stainless mesh filters with pore sizes of 212 μm, 150 μm, and then onto the final mesh of 75 μm. The isolated glomeruli were harvested from the surface of the 75 μm. The isolated glomeruli were harvested from the surface of the 75 μm filter and washed twisce with the Hank's Media. The glomeruli were suspended in RPMI 1640 Medium with 15% Fetal Bovine Serum (Givco), penicillin (100 μ/ml) and streptomycin (100 μg/ml) (Gibco), plated into 100 mm cell culture petri dishes, and incubated at 37° C. in a humidified atmosphere of 95% air and 5% air and 5% CO2. Mesangial cell colonies were subcultured in 60 mm culture dishes, and experiments were carried out in cells from passages 2 to 12. […] Cells were routinely grown in RPMI-1640, supplemented with 20% fetal calf serum, penicillin 100 μ/ml, and streptomycin 100 μg/ml.
Binding studies were routinely performed at 4° C. […] The cells were then dissolved with 1.0 ml of 1.0 N NaOH, neutralized with HCl, dissolved in 10 ml of Aquasol (New England Nuclear, Boston, MA), and the bound radioactivity was determined using a scintillation counter (Beckman Instruments). […] Cell density was determined by counting cells from replicate wells, using a Coulter Counter ZBi (Coulter Electronics, Inc., Hialeah, Fla.).

For `CCCCC[C@H](O)/C=C/C=C\C=C\C=C\[C@@H](O)[C@@H](O)CCCC(=O)O` [LXA4, (5S,6R,15S)-5,6,15-trihydroxy-7,9,13-trans-11-cis-eicosatetraenoic acid], the “Concentration that relaxes (dilates) vascular smooth muscle” value (vascular smooth muscle) is given as “less than 1 μM”, the “Neutrophil superoxide generation, elastase release and leukocyte chemotaxis” value (neutrophils) is given as “induce neutrophils to generate superoxide radicals, release elastase, and promote chemotaxis by leukocytes” and the “Contraction of pulmonary smooth muscle” value (guinea pig lung) is given as “contract pulmonary smooth muscle”. The “Contraction of ileum or trachea” value [1] was “not guinea pig ileum or trachea”, the activation at 0.001 µM (rat mesangial cells; 1 nM, 5 sec, n=3, p<0.05, read-out: increase in [3H]-IP3 counts over controls) was 46 ± 14% and the activation at 0.01 µM (rat mesangial cells; 10 nM LXA4, 5 sec, n=6, p<0.05, read-out: increase in [3H]-IP3 counts over controls) was 50 ± 21%. For the same molecule, the activation at 0.05 µM (rat mesangial cells; 50 nM LXA4, 5 sec, n=3, p<0.05, read-out: increase in [3H]-IP3 counts over controls) was 44 ± 22%, the activation at 0.1 µM (rat mesangial cells; 100 nM, 5 sec, n=5, p<0.05, read-out: increase in [3H]-IP3 counts over controls) was 45 ± 26% and the “Inhibition of LTD4-induced IP3 generation” value (LTD4 receptor; pre-incubation with 100 nM LXA4 for 10 min, then 10 nM LTD4 (n=3)) was “completely prevented”. For the same molecule, the “Inhibition of LTD4-induced stimulation of IP3 formation (FIG. 2)” value (LTD4 receptor; preexposure to 100 nM LXA4 for 10 minutes) was “abrogation” and the IC50 [2] was 100 nM.
